Several values for one entry are separate records, joined by “and”; a condition that tells them apart may be missing. Equal entries are not always repeated. Structures can show the parent of a compound that is named as a salt.
Key:
[1] = biological target: T1, interaction between 6×His-Bcl-xL and GST-BF8 (Homo sapiens, UniProt Q07817); assay: Pull down assay, Bcl-xL/BF8 in vitro interaction; assay type: binding; conditions: 50 μM, 5% DMSO; Western blot
T1 construct: made in house; host or cells: E. coli
T1 sequence (Q07817 whole entry): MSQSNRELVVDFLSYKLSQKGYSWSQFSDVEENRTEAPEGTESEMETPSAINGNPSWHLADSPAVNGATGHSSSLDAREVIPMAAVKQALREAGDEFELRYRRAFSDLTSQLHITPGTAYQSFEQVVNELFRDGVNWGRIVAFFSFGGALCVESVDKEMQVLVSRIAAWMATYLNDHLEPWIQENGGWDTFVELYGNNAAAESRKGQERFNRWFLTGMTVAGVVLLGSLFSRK
Procedure: FIG. 3: Inhibition of the interaction between Bcl-xL and BF8, a peptide aptamer that targets the hydrophobic groove of BCL-2 family members. […]
C+: 6×His-Bcl-xL captured by GST-BF8, in presence of 5% DMSO. (02): 6×His-Bcl-xL captured by GST-BF8, in presence of 50 μM of compound 02 (in 5% DMSO). (01): 6×His-Bcl-xL captured by GST-BF8, in presence of 50 μM of compound 01 (in 5% DMSO).
A peptide aptamer (dubbed BF8) has been selected against the anti-apoptotic protein Bfl1, member of the BCL-2 family. […] Two lines of evidence indicate that BF8 binds the hydrophobic groove of anti-apoptotic BCL-2-like proteins. First, the amino-acid sequence of its variable region bears similarities with the sequence of the BH3 domains of pro-apoptotic members of the BCL-2 family (such as Bak or Bax), known to bind the anti-apoptotic proteins via this hydrophobic groove. Second, BF8 no longer binds a mutated variant of Bfl-1 that bears an amino-acid substitution within the said hydrophobic groove.
A Bcl-xL/BF8 in vitro interaction assay was developed to examine the capacity of the compounds of the invention to disrupt this interaction by competition with the peptide aptamer. 6×His-Bcl-xL and GST-BF8 recombinant fusion proteins were expressed in E. coli and purified using affinity chromatography. […]

U937 cells = assay: Proliferation test ViaLight HS, U937 cells (Example 8); assay type: cell-based, human; conditions: 72 h incubation, range = multiple experiments, otherwise individual experiments
Procedure: 2C Proliferation test ViaLight® HS High Sensitivity Cytotoxicity and Cell Proliferation BioAssay Kit
This protocol allows the determination of the cytostatic and cytotoxic activities of compounds to be tested on mammalian cells in culture and was carried out essentially according to the manufacturer's recommendations.
Cells are suspended in 15 mL of their respective media and are enumerated. They are then diluted in their media in order to obtain: • 2500 cells per 90 μL per well for MRC5 cells • 5000 cells per 90 μL per well for all other cell lines. Cells are then seeded in a 96 well plate, and incubated at least 4 hours in the incubator at 37° C. in 5% CO2.
The molecules to be tested are diluted in DMEM with DMSO in order to obtain the following dilutions: • dilution at 250 μM/1% DMSO • dilution at 50 μM/1% DMSO • dilution at […] • dilution at 2 μM/1% DMSO • dilution at 400 nM/1% DMSO • dilution at 80 nM/1% DMSO For each well comprising 90 μL of cell suspension, 10 μL of a solution of the compound to be tested is added, with the 6 different concentrations. The plate is then incubated during 72 hours. One control plate is contacted with 10 μL of DMEM 1% DMSO, without compound to be tested. 50 μL of lysis buffer (test Vialight® lysis buffer) is added in each well of the control plate and the plate is incubated 10 minutes under hood.
Then, 100 μL of test buffer (test Vialight® test buffer) is added in each well and the control plate is incubated during 2 minutes. The luminescence is read in each well. The mean luminescence for each type of cells is called T0.
After the 72 h incubation, in order to determine the viability, 50 μL of lysis buffer (test Vialight® lysis buffer) is added in each well of the plates and the plates are incubated 10 minutes under hood.
Then, 100 μL of test buffer (test Vialight® test buffer) is added in each well and the plates are incubated during 2 minutes. The luminescence is read in each well. For each type of cell, the mean luminescence in the well not containing the compound is called C72 and the mean luminescence in well containing a given concentration of a compound to be tested is called T72. For each dilution (concentration of compound to be tested), T0 and T72 values are compared.
The graph is plotted for the different concentrations of compound and • GI50 (50% of growth inhibitory) is determined, this is the dose producing 50% of cell growth (intersection at Y=50); • TGI (total growth inhibitory) is determined on the graph, this is the dose producing the total arrest of the cell growth (intersection at Y=0); and • LC50 (50% of lethal concentration) is determined, this is the dose producing the death of 50% of the cells (intersection at Y=−50).
Following the protocol described in Example 2C, different compounds according to the invention have been tested for their cytostatic and cytotoxic activities on mammalian cells in culture (specifically U937 cells).
The GI50 (50% of growth inhibitory) has been determined for all the following compounds, i.e. the dose producing 50% of cell growth inhibition.
Where the GI50 provided is in the form of a range, it means that multiple experiments, whose results fall within the range indicated, were performed. Otherwise, results of individual experiments are provided.

[2] = in vivo; cited from earlier work
[3] = test system: melanoma, breast, cervical, prostate, colon tumor cells; conditions: cited from earlier work

Row | SMILES | GI50 (U937 cells; Homo sapiens, U-937, 72 h) [nM] | other results
1 | COc1cc(NS(=O)(=O)c2cc(C)oc2C)ccc1-c1cc2ccccc2oc1=O [Compound 13, N-[3-methoxy-4-(2-oxo-2H-chromen-3-yl)phenyl]-2,5-dimethylfuran-3-sulfonamide] | 100 | 
2 | COC1=CC(c2cc3ccccc3[nH]2)=N/C1=C\c1[nH]c(C)cc1C [GX15-070] |  | MTD (maximal tolerated dose) [2]: approx 16 mg/kg; Growth of melanoma, breast, cervical, prostate, colon tumor cells [3]: inhibit growth
3 | COc1cc(N(C(C)=O)S(=O)(=O)c2cc(C)oc2C)ccc1-c1cc2ccccc2oc1=O [Compound 23, 2,5-dimethyl-furan-3-sulfonic acid acetyl-[3-methoxy-4-(2-oxo-2H-chromen-3-yl)-phenyl]-amide] | ~500 | 
4 | COc1cc(N(C)C(=N)NC(=O)/C=C/c2ccco2)ccc1-c1cc2ccccc2oc1=O [Compound 19, N′-((E)-3-furan-2-yl-acryloyl)-N-[3-methoxy-4-(2-oxo-2H-chromen-3-yl)-phenyl]-N-methyl-guanidine] | 9200 | 
5 | COc1cc(NC(=O)Nc2ccc(N(C)C)cc2)ccc1-c1cc2ccccc2oc1=O [Compound 06, 1-(4-dimethylamino-phenyl)-3-[3-methoxy-4-(2-oxo-2H-chromen-3-yl)-phenyl]-urea.HCl] | 320 | GI50 (U937 cells): 580 nM
6 | COc1cc(NC(=S)NC(=O)/C=C/c2ccco2)ccc1-c1cc2ccccc2[nH]c1=O [Compound 15, (2E)-3-(2-furyl)-N-({[3-methoxy-4-(2-oxo-1,2-dihydroquinolin-3-yl)phenyl]amino}carbonothioyl)acrylamide] |  | GI50 (U937 cells): 63 nM and 210 nM
7 | COc1cc(NC(=S)NC(=O)c2ccc(F)cc2)ccc1-c1cc2ccccc2oc1=O [Compound 05, 4-fluoro-N-({[3-methoxy-4-(2-oxo-2H-chromen-3-yl)phenyl]amino}carbonothioyl)benzamide] | 920 | GI50 (U937 cells): 1500 nM
8 | COc1cc(NC(=S)Nc2ccc(N3CCOCC3)cc2)ccc1-c1cc2ccccc2oc1=O [Compound 20, 1-[3-methoxy-4-(2-oxo-2H-chromen-3-yl)-phenyl]-3-(4-morpholin-4-yl-phenyl)-thiourea] | 1100 | 
9 | COC(=O)c1ccc(S(=O)(=O)Nc2ccc(-c3cc4ccccc4oc3=O)c(OC)c2)n1C [Compound 09, methyl 5-({[3-methoxy-4-(2-oxo-2H-chromen-3-yl)phenyl]amino}sulfonyl)-1-methyl-1H-pyrrole-2-carboxylate] | 500 to 600 | 
10 | COc1cc(NC(=N)NC(=O)/C=C/c2ccco2)ccc1-c1cc2ccccc2oc1=O [Compound 12, (2E)-3-(2-furyl)-N-(imino{[3-methoxy-4-(2-oxo-2H-chromen-3-yl)phenyl]amino}methyl)acrylamide] | 1600 to 2100 | 
11 | COc1cc(NC(=N)NC(=O)c2ccccc2)ccc1-c1cc2ccccc2[nH]c1=O [Compound 22, N-Benzoyl-N′-[3-methoxy-4-(2-oxo-1,2-dihydro-quinolin-3-yl)-phenyl]-guanidine] | 1000 | 

The next lines start with results.

Row | GI50 (U937 cells; Homo sapiens, U-937, 72 h) [nM] | SMILES | other results
12 | 600 to 860 | COc1cc(NC(=S)NC(=O)c2ccccc2)ccc1-c1cc2ccccc2oc1=O [Compound 02, N-({[3-methoxy-4-(2-oxo-2H-chromen-3-yl)phenyl]amino}carbonothioyl)benzamide] | Inhibition of the in vitro interaction between 6×His-Bcl-xL and GST-BF8 [1]: inhibit
13 | 220 | COc1cc(/N=C(/NC(=O)/C=C/c2ccco2)SC)ccc1-c1cc2ccccc2oc1=O [Compound 14, methyl N-[(2E)-3-(2-furyl)prop-2-enoyl]-Ar-[3-methoxy-4-(2-oxo-2H-chromen-3-yl)phenyl]imidothiocarbamate] | 
14 | 630 | COc1cc(NC(=N)NC(=O)c2ccccc2)ccc1-c1cc2ccccc2oc1=O [Compound 07, N-(imino{[3-methoxy-4-(2-oxo-2H-chromen-3-yl)phenyl]amino}methyl)benzamide] | GI50 (U937 cells): 800 nM
15 | ~90 | COc1cc(NC(=S)NC(=O)/C=C/c2ccco2)ccc1-c1cc2ccccc2n(CCO)c1=O [Compound 21, 1-((E)-3-furan-2-yl-acryloyl)-3-{4-[1-(2-hydroxy-ethyl)-2-oxo-1,2-dihydro-quinolin-3-yl]-3-methoxy-phenyl}-thiourea] | 
16 | 45 | COc1cc(NC(=S)NC(=O)/C=C/c2ccco2)ccc1-c1cc2ccccc2n(C)c1=O [Compound 17, (2E)-3-(2-furyl)-N-({[3-methoxy-4-(1-methyl-2-oxo-1,2-dihydroquinolin-3-yl)phenyl]amino}carbonothioyl)acrylamide] | 
17 | 150 | COc1cc(NC(=O)Nc2cccc(N(C)C)c2)ccc1-c1cc2ccccc2oc1=O [Compound 18, 1-(3-dimethylamino-phenyl)-3-[3-methoxy-4-(2-oxo-2H-chromen-3-yl)-phenyl]-urea.HCl] | 
18 | 33 | COc1cc(/N=C(\SC)N(C)C(=O)/C=C/c2ccco2)ccc1-c1cc2ccccc2oc1=O [Compound 24, 1-((E)-3-furan-2-yl-acryloyl)-3-[3-methoxy-4-(2-oxo-2H-chromen-3-yl)-phenyl]-1,2-dimethyl-isothiourea] | 
19 | 610 | COc1cc(NC(=O)Nc2ccccc2)ccc1-c1cc2ccccc2oc1=O [Compound 03, 1-[3-methoxy-4-(2-oxo-2H-chromen-3-yl)-phenyl]-3-phenyl-urea] | 
20 | 1200 | COc1cc(NC(=S)Nc2ccc(N3CCOCC3)nc2)ccc1-c1cc2ccccc2oc1=O [Compound 08, 1-[3-methoxy-4-(2-oxo-2H-chromen-3-yl)-phenyl]-3-(6-morpholin-4-yl-pyridin-3-yl)-thiourea] | 
21 | 410 | COc1cc(/N=C(\SC)N(C)C(=O)c2ccc(F)cc2)ccc1-c1cc2ccccc2oc1=O [Compound 25, 1-(4-fluoro-benzoyl)-3-[3-methoxy-4-(2-oxo-2H-chromen-3-yl)-phenyl]-1,2-dimethyl-isothiourea] | 

— patent US20090203685A1, “ANTI-PROLIFERATIVE COMPOUNDS FROM A 3-ARYL-COUMARINE OR 3-ARYL-QUINOLIN-2-ONE AND USES THEREOF” (EOS (ETHICAL ONCOLOGY SCIENCE) S.P.A., priority 2006, published 2009)
